Data from the Kinase Knowledgebase extract (Sharma et al. 2016).

target: PIK3CA (UniProt P42336); test: PI3K Inhibition
Sequence (P42336 whole entry, looked up): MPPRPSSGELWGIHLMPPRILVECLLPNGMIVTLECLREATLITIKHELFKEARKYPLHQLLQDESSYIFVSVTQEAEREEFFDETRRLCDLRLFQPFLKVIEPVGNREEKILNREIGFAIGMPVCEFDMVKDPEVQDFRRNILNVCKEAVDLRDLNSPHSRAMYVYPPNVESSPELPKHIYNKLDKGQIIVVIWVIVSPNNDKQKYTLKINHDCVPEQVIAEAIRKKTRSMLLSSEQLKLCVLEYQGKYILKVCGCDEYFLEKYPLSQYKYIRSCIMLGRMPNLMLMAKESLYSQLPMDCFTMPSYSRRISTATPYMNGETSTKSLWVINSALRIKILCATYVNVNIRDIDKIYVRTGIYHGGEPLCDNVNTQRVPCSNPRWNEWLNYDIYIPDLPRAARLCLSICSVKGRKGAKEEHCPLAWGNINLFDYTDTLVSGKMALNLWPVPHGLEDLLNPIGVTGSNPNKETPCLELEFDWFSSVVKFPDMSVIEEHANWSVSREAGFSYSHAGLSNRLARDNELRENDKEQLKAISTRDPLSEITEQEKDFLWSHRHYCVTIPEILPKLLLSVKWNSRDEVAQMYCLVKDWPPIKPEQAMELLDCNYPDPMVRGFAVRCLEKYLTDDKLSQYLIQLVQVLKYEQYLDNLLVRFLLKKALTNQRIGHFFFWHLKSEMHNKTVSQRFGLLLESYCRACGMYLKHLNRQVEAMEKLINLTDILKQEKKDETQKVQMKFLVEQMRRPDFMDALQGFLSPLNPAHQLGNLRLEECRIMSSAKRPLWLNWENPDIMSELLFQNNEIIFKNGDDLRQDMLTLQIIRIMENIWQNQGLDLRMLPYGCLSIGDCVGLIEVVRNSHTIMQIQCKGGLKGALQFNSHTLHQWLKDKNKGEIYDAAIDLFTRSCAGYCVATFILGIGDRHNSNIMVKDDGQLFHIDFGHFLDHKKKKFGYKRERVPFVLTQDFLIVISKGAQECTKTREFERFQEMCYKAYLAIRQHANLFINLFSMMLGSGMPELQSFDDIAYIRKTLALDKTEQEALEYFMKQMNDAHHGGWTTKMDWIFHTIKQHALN

SMILES	IC50 [µM]
CO[C@H]1C[C@@H](C)CC2=C(NCCCC#Cc3cccc4c(=O)cc(N5CCOCC5)oc34)C(=O)C=C(NC(=O)C(C)=CC=C[C@@H](OC)[C@H](OC(N)=O)C(C)=C[C@H](C)[C@H]1O)C2=O	13.5
CO[C@H]1C[C@@H](C)CC2=C(NCC#Cc3cccc4c(=O)cc(N5CCOCC5)oc34)C(=O)C=C(NC(=O)C(C)=CC=C[C@@H](OC)[C@H](OC(N)=O)C(C)=C[C@H](C)[C@H]1O)C2=O	3
CO[C@H]1C[C@@H](C)CC2=C(NCCCCCOc3ccc4c(=O)cc(N5CCOCC5)oc4c3)C(=O)C=C(NC(=O)C(C)=CC=C[C@@H](OC)[C@H](OC(N)=O)C(C)=C[C@H](C)[C@H]1O)C2=O	310
C=CCNC1=C2C[C@@H](C)C[C@H](OC)[C@H](O)[C@@H](C)C=C(C)[C@H](OC(N)=O)[C@@H](OC)C=CC=C(C)C(=O)NC(=CC1=O)C2=O	> 500
CO[C@H]1C[C@@H](C)CC2=C(NCCCCCCOc3ccc4c(=O)cc(N5CCOCC5)oc4c3)C(=O)C=C(NC(=O)C(C)=CC=C[C@@H](OC)[C@H](OC(N)=O)C(C)=C[C@H](C)[C@H]1O)C2=O	> 500

Now from value to compound:

IC50 [µM]	SMILES
5	CO[C@H]1C[C@@H](C)CC2=C(NCCCCCCCOc3ccc4c(=O)cc(N5CCOCC5)oc4c3C)C(=O)C=C(NC(=O)C(C)=CC=C[C@@H](OC)[C@H](OC(N)=O)C(C)=C[C@H](C)[C@H]1O)C2=O
> 500	CO[C@H]1C[C@@H](C)CC2=C(NCCCOc3ccc4c(=O)cc(N5CCOCC5)oc4c3)C(=O)C=C(NC(=O)C(C)=CC=C[C@@H](OC)[C@H](OC(N)=O)C(C)=C[C@H](C)[C@H]1O)C2=O
85	CO[C@H]1C[C@@H](C)CC2=C(NCCOCCOc3ccc4c(=O)cc(N5CCOCC5)oc4c3)C(=O)C=C(NC(=O)C(C)=CC=C[C@@H](OC)[C@H](OC(N)=O)C(C)=C[C@H](C)[C@H]1O)C2=O
28	CO[C@H]1C[C@@H](C)CC2=C(NCCCCCCCCOc3ccc4c(=O)cc(N5CCOCC5)oc4c3C)C(=O)C=C(NC(=O)C(C)=CC=C[C@@H](OC)[C@H](OC(N)=O)C(C)=C[C@H](C)[C@H]1O)C2=O
200	CO[C@H]1C[C@@H](C)CC2=C(NCCCCOc3ccc4c(=O)cc(N5CCOCC5)oc4c3)C(=O)C=C(NC(=O)C(C)=CC=C[C@@H](OC)[C@H](OC(N)=O)C(C)=C[C@H](C)[C@H]1O)C2=O
70	CO[C@H]1C[C@@H](C)CC2=C(NCCOCCOc3ccc4c(=O)cc(N5CCOCC5)oc4c3C)C(=O)C=C(NC(=O)C(C)=CC=C[C@@H](OC)[C@H](OC(N)=O)C(C)=C[C@H](C)[C@H]1O)C2=O
